Source: patent US20210161915A1, “GABA-A ANTAGONISTS FOR TREATING SUBSTANCE […]” (ASARINA PHARMA APS, priority 2018, published 2021)

Experiments:
[1] = intended doses; cited from earlier work
[2] = biological target: T1, human alpha4,beta,delta GABAA receptor subtype (Homo sapiens, UniProt P28472+P48169); assay: Patch-clamp (Dynaflow system) current response in HEK-293 cells transfected with alpha4,beta3,delta GABAA receptor; type: cell-based
T1 construct: expressed in transfected cells; host or cells: HEK-293
Experimental: (§1) In these tests the protocol was optimized to be similar to the physiological conditions in the synaptic cleft.
(§2) Cell culture: HEK-293 cells, permanently transfected with the human alpha1,beta,gamma and alpha4,beta,delta GABAA receptor subtypes, were seeded at a density of 3×10^4/25 cm^2 in a culture flask. The transfected cells were used for patch-clamp experiments 3 days after seeding. When using the cells for patch-clamp experiments the cells were washed twice with oxygen-bubbled extra cellular (EC) solution (see below). About 5 mL EC was then added and the cells were kept in the incubator for about 15 minutes. After 15 minutes the cells came loose from the bottom of the flask and were separated by carefully sucking a couple of times with a Pasteur pipette.
(§3) Dynaflow™ system with Resolve chip was used for patch-clamp experiments: The electrophysiological recordings from HEK-293 cells were performed under voltage-clamp conditions using patch-clamp technique and the Dynaflow™ system (Dynaflow Pro II Platform Zeiss Axiovert 25; Cellectricon AB, Sweden) with Resolve chips as application system.
(§4) Patch pipettes were pulled from borosilicate glass and polished to a resistance 2-5 MΩ when filled with suitable intracellular solution (IC) (pH was adjusted to 7.2) and immersed in bath solution (extracellular, EC) (pH is adjusted to 7.4).
(§5) The recordings were made using an Axopatch 200B amplifier, a Digidata 1322A (Axon instruments, Foster city, USA). Data were analysed using the pCLAMP software sampled at 10 kHz, filtered at 2-10 kHz and analyzed with Clampfit (versions 9.0, both from Axon instruments, Foster city, USA). No higher series resistance than 20 MΩ between pipette and cell membrane was accepted. No series resistance compensation was used. The stability of series resistance was monitored repeatedly from the time course of capacitative transients during the experiments. The measured liquid-junction potential between EC and IC was subtracted in all data presented. All experiments were performed at room temperature (21-23° C.).
(§6) All steroids were dissolved to the concentration of 6 mM in DMSO. […] End solutions were the solutions added into the wells of the chip.
(§7) Electrophysiology: After compensating for the liquid junction potential a steady holding potential of −17 mV was used in all experiments. […] By using the holding potential of −17 mV and the intracellular solution with low chloride ion concentration the chloride ions flux into the cell when the receptors were activated.
The Dynaflow system allowed application of solutions for as short as 40 ms up to minutes in time. […] There was no difference in response between the second and the third GABA application. Therefore, the first GABA application was always repeated twice and the second response was used in the analysis.
Washout: GABA is quite soluble in water and easy to washout from the receptor. […] Steroids on the other hand were difficult to dissolve in water and also difficult to washout from the receptor. In the experiments, THDOC and 3alpha-OH-adiol were used as the positive GABAA receptor modulating steroids. With 2 minutes washout time, 200 nM THDOC and 3alpha-OH-adiol was completely washed out as shown by neither an accumulative nor a desensitization effect.
(§8) Different incubation times were studied to achieve the optimal time for attaining stable results and minimize the washout time.

female Wistar rats = assay: Resident/intruder (R/I) test of estrus cycle-dependent tolerance/withdrawal symptoms; type: in vivo, rat; conditions: 1.5 mg/kg s.c. daily
Experimental: Experimental set-up: Experiments were carried out in female cycling rats. Rats have steroid variations related to ovulation similar to humans. […] The symptoms are related to the excitability changes in the brain that precedes withdrawal symptoms. Symptoms like migraine attacks and epileptic seizure(s) will arrive after a period of tolerance (Reddy & Rogawski 2009; Slawecki et al 2000, Welch K M. 2005). Symptoms in rats were investigated using a resident/intruder (R/I) test with behavioral analysis at the diestrus and the estrus phases of the estrus cycle (FIG. 3). The symptoms referred to in this Example are behavioral symptoms of withdrawal.
The frequency of behavioral symptom expression at diestrus and estrus during treatment were compared to the same behavior expression prior to treatment. The intruder rats were ovariectomized animals of the same age and size as the residents.
Animals: In total, 42 female Wistar rats (Taconics, Lille Skensved, Denmark) were used. At arrival the animals were approximately 9 weeks old and weighed 185-209 g. For identification, the rats were marked on their tails with permanent ink (PorciMark™). The animals were housed in triads at the animal facility where all experiments took place (Umea University, Umea, Sweden). A reversed light/dark cycle was used (12 h/12 h light/dark; lights off at 04:00). Food (standard chow) and water was available ad libitum. The rats were handled daily for two weeks prior to the start of testing. Nine rats were randomly selected as intruder rats and were ovariectomized. The remaining intact rats were tested for estrus cycle-dependent symptomatic behavior. The study protocol was approved by the Regional Ethics Committee of Umea, Sweden. All animal handling and experiments were performed according to Swedish legislation.
Ovariectomy of the intruder rats: Ovariectomy of the intruder rats was carried out by ligation of uterine tubes and removal of ovaries under anesthesia with 2.3% Isoflurane (Baxter Medical AB, Kista, Sweden) in oxygen (O2 flow rate 0.32 L/min). The surgical suture techniques included the use of surgical glue (Vetbond Tissue Adhesive No 1469 3M) in addition to sutures. Pain relief (Rimadyl Vet, 0.25 mg/100 g) was given daily for one week post-surgery.
Determination of estrus cycle phase: Estrus cycle phase (proestrus, estrus, metestrus and diestrus) of the rats was determined by microscope examination of vaginal smears. The smears were collected daily between 08:00 and 10:00, using a glass pipette with 50-70 μL normal saline (NaCl 0.9%), and stained with 0.2% toluidine blue. However, on the day of R/I test, the vaginal smear of a tested animal was collected immediately after the encounter. In addition, during the 3beta-hydroxy-5alpha-pregnan-20-one treatment, the smears were collected directly in the morning before injections to confirm expected estrus cycle phase. Diestrus (including metestrus) is characterized by the presence of leucocytes in smears. Both nucleated epithelial cells and cornified epithelial cells are present at diestrus but more abundantly at metestrus than at late diestrus. Estrus (including proestrus) is characterized by thick smears free from leucocytes but with abundant presence of nucleated epithelial cells (predominant in proestrus) and cornified epithelial cell (predominant at estrus). Further details are provided in Hubscher et al., 2005. […]

[3] = biological target: T2, human alpha1,beta2,gamma2 Long GABAA receptor subtype (Homo sapiens, UniProt P14867+P47870); assay: Patch-clamp (Dynaflow system) current response in HEK-293 cells transfected with alpha1,beta2,gamma2 Long GABAA receptor; type: cell-based
T2 construct: expressed in transfected cells; host or cells: HEK-293
Experimental: as §1, §2, §3, §4, §5, §6, §7
The Dynaflow system allowed application of solutions for as short as 40 ms up to minutes in time.
In the experiments, THDOC and 3alpha-OH-adiol were used as the positive GABAA receptor modulating steroids.
as §8
Study design: Studies were conducted on current response mediated by chloride ion flux through the GABAA receptor. […] The same patch-clamp technique was used as described above (Example 1) using the Dynaflow™ application system. THDOC was used as positive GABAA receptor modulating steroid as it has shorter washout time compared to allopregnanolone but works with the same mechanisms on the same GABAA receptor binding site as allopregnanolone.
HEK-293 cells, permanently transfected with cDNA expressing the human alpha1,beta2,gamma2 Long GABAA receptor subtype. The tissue culture and the handling of the cells were as described in Example 1. In the patch-clamp experiments the transfected cells were used minimum two passages after defrosting and 3 days after seeding. The cells were seeded for maximal 25 times.

T1 sequence (P48169 36-554): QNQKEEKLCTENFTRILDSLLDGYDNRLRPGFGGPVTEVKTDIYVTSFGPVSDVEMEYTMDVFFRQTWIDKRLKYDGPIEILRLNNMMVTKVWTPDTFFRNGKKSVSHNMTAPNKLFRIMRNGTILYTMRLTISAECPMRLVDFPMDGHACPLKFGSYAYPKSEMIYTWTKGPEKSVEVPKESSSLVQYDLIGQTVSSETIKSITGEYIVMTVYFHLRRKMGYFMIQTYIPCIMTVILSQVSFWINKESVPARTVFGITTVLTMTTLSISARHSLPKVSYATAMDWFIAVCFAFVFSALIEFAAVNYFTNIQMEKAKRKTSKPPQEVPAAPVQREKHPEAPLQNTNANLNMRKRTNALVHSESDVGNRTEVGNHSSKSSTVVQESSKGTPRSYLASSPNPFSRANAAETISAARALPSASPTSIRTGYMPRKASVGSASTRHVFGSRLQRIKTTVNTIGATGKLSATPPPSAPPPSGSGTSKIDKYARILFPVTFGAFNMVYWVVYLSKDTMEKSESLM
T1 sequence (P28472 26-473): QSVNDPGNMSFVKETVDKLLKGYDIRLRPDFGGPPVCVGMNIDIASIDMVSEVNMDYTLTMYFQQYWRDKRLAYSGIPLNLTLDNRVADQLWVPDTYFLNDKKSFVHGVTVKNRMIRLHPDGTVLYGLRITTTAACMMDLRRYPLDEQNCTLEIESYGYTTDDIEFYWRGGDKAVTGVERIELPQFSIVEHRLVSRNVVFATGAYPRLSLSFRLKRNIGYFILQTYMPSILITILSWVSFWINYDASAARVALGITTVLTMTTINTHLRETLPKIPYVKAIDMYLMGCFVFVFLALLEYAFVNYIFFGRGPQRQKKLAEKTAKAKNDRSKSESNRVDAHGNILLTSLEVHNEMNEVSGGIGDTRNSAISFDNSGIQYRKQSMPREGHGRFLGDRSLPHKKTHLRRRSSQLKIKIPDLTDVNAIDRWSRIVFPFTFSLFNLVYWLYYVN
T1 sequence (O14764 17-452 partner limits assumed): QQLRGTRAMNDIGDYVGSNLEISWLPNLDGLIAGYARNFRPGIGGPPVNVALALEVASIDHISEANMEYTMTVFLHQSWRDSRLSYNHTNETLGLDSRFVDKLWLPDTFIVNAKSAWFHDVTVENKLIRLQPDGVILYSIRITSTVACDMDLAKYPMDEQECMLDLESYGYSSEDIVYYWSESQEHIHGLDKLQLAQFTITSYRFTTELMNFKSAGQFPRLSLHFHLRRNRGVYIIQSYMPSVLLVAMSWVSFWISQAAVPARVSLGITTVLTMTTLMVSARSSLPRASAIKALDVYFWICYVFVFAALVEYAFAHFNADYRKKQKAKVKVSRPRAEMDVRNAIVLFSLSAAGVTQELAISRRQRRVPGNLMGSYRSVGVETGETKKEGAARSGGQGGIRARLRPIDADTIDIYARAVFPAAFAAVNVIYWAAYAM
T2 sequence (P14867 28-456): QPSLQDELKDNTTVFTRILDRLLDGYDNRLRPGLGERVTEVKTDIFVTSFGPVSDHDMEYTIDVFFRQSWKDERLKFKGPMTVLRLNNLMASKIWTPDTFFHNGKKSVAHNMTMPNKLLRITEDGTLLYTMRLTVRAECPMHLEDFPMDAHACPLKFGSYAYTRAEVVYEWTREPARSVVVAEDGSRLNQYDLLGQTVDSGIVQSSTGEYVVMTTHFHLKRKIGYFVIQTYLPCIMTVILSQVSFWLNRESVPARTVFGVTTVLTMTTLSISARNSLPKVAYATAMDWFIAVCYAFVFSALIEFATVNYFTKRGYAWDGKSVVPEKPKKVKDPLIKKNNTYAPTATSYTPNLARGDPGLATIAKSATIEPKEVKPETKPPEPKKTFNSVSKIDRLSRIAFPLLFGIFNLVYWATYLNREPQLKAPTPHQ
T2 sequence (P47870 25-512 limits assumed): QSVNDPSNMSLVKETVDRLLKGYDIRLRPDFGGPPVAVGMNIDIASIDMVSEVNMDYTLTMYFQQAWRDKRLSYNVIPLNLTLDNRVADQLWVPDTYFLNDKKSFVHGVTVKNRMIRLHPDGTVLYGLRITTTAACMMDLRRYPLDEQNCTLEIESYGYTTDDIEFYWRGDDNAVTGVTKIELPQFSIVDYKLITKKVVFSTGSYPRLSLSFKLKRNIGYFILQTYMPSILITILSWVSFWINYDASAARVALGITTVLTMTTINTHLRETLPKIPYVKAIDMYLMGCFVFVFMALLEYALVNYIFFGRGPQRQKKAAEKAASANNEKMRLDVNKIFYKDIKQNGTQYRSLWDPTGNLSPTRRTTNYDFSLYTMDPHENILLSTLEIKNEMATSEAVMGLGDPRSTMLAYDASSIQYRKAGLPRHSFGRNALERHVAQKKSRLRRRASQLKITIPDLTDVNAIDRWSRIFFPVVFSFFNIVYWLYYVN
T2 sequence (P18507 40-475 partner): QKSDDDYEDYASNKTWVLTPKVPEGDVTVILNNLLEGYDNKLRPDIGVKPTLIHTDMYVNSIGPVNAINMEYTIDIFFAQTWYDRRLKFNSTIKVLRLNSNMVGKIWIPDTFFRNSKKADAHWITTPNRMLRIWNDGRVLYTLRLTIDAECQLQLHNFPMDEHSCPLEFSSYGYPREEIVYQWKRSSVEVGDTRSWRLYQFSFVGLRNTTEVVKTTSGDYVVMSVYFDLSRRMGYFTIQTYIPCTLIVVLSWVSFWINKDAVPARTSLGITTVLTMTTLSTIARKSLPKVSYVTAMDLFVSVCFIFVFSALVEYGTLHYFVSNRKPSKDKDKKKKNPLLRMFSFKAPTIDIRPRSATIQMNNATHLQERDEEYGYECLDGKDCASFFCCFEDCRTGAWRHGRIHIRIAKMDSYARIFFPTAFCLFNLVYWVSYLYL

## CC(=O)[C@H]1CC[C@H]2[C@@H]3CC[C@H]4C[C@@H](O)CC[C@]4(C)[C@H]3CC[C@]12C [UC1010, 3beta-hydroxy-5alpha-pregnan-20-one]
[1]
  Safety in clinical studies: shown safe
[2]
  The effect of 1 μM UC1010 on 0.6 μM Androstanediol + 3 μM GABA, Mean ± SEM %: −18 ± 2.0%
  The effect of 1 μM UC1010 on 0.8 μM Androstanediol + 3 μM GABA, Mean ± SEM %: −22 ± 2.6%
[2]; 1 μM, no GABA, no THDOC
  Current response of compound by itself: −0.4±0.3 pA
[2]; baseline shift without GABA
  The effect of 1 μM UC1010 on 0.1 μM THDOC alone baseline, Mean ± SEM %: −43 ± 3.5%
[2]; control, GABA alone
  The effect of 1 μM UC1010 on 3 μM GABA response, Mean ± SEM %: −6.7 ± 3.3%
[2]; steady state
  The effect of 1 μM UC1010 on 0.1 μM THDOC + 3 μM GABA, Mean ± SEM %: −26 ± 2.4%
Female Wistar rats; 14 rats with symptoms
  Symptoms at diestrus during treatment in comparison to mean diestrus without treatment: significantly decreased
Female Wistar rats; baseline diestrus set to 100%, baseline estrus set to 0%, n=14
  Relative effect of treatment on symptomatic behavior at diestrus: −89%
Female Wistar rats; data not shown
  Estrus cycle duration or vaginal smear appearance during treatment: did not change
Female Wistar rats; nine rats with symptoms in both cycles
  Symptomatic behaviors at both diestrus phases when treated compared to diestrus at baseline: less frequent
Female Wistar rats; symptoms at diestrus
  Effect size, Cohen's d: 1.67
[3]; 1 μM UC1010 + 30 μM GABA + 200 nM THDOC
  Imax/Emax Mean ± SEM %, antagonism of THDOC enhanced effect: −22.3±5.3%
[3]; 1 μM UC1010 + 30 μM GABA, compared to GABA alone
  Imax/Emax Mean ± SEM %, effect on GABA response: +10.3 ± 7.8%
[3]; HEK293, 0.1-1 μM UC1010 + 30 μM GABA + 200 nM THDOC, concentration-dependent experiment, read-out: Imax/Emax, max antagonism of THDOC effect
  Emax: -21 ± 4.6%
[3]; HEK293, read-out: Imax/Emax Mean ± SEM %, effect on GABA response, 1 μM UC1010 + 30 μM GABA, compared to GABA alone
  Emax at 1 µM: 10.3%
[3]; steady state (phasic effect)
  The effect of 1 μM UC1010 on 8 μM Androstanediol + 30 μM GABA, Mean ± SEM %: −30 ± 1.7%
[3]; tonic effect
  The effect of 1 μM UC1010 on 8 μM Androstanediol, baseline shift, Mean ± SEM %: −33 ± 7.6%
